Assay results published in patent publication US20230174571A1, “METHOD OF TREATING SHIP1-MEDIATED DISEASES USING PELOROL DERIVATIVES” (Zebrapeutics Inc., priority 2020, published 2023).

How the values were obtained:
colitis in IL10−/− mice = experiment: Mouse colitis model (IL10 knock-out); type: in vivo; settings: colitic IL10−/− mice
Protocol: Mouse Colitis Model. Colitis was induced in 6-8 week old BALB/cIL10−/−mice by administering the colonic contents of conventional C57BL/6 mice diluted 1:10 in PBS by oral gavage. Mouse weights and fecal consistencies were monitored and colitis allowed to develop for 6 weeks. Ethanol (Vehicle) and compound I-1 (3 mg/kg) was diluted in cage drinking water and dexamethasone (0.4 mg/kg) was administered every 2 days by oral gavage for 3 weeks. At the end of the dosing period, proximal, medial and distal colon sections were collected for paraffin embedding or stored in RNALater (Invitrogen, Mississauga, ON) for RNA extraction. Slides were prepared, stained with hematoxylin and eosin, and mounted by the UBC Department of Pathology and Laboratory Medicine Histochemistry Facility. Specimens were assigned pathological scores by two, independent, blinded investigators according to a method described by Madsen et al (Madsen et al., 2001). In brief, colonic inflammation was graded using a 4-point scale, scoring 0-3 for each of submucosal edema, immune cell infiltration, goblet cell ablation, and integrity of the epithelial layer. For analysis of mRNA expression, colon sections were homogenized and total RNA extracted as described above and analyzed by real time PCR using gene specific primers for IL17, CCL2, and GAPDH (normalization control).
To show in vivo anti-inflammatory effect of the compounds of the present disclosure, exemplary compound I-1 was administered to IL-10 knock-out mouse model of colitis (Keubler 2015). IL10 knock-out mice develop colitis when colonized with normal gut flora because IL10 is needed to temper the host immune response to intestinal commensal bacteria (Keubler 2015, Kuhn 1993). Colitis was initiated in IL10−/−mice by inoculating them with the freshly isolated colon contents of normal, specific pathogen free mice and allowed inflammation to develop for 6 weeks (Sydora 2003). Mice were then treated for 3 weeks with vehicle, 2 mg/kg compound I-1, or 0.4 mg/kg dexamethasone (anti-inflammatory steroidal drug used as positive control) prior to colon tissue collection for analyses. Hematoxylin and eosin stained sections were prepared from the proximal, mid and distal colons of mice, as well as from mice not inoculated with flora (no colitis group) (FIG. 8A).

SHIP1 = target: T1, SHIP1 (Mus musculus, UniProt Q9ES52); settings: binds to the same SHIP1 C2 domain as PI(3,4)P2; Ong et al., 2007; cited from earlier work
T1 sequence (Q9ES52 1-1191): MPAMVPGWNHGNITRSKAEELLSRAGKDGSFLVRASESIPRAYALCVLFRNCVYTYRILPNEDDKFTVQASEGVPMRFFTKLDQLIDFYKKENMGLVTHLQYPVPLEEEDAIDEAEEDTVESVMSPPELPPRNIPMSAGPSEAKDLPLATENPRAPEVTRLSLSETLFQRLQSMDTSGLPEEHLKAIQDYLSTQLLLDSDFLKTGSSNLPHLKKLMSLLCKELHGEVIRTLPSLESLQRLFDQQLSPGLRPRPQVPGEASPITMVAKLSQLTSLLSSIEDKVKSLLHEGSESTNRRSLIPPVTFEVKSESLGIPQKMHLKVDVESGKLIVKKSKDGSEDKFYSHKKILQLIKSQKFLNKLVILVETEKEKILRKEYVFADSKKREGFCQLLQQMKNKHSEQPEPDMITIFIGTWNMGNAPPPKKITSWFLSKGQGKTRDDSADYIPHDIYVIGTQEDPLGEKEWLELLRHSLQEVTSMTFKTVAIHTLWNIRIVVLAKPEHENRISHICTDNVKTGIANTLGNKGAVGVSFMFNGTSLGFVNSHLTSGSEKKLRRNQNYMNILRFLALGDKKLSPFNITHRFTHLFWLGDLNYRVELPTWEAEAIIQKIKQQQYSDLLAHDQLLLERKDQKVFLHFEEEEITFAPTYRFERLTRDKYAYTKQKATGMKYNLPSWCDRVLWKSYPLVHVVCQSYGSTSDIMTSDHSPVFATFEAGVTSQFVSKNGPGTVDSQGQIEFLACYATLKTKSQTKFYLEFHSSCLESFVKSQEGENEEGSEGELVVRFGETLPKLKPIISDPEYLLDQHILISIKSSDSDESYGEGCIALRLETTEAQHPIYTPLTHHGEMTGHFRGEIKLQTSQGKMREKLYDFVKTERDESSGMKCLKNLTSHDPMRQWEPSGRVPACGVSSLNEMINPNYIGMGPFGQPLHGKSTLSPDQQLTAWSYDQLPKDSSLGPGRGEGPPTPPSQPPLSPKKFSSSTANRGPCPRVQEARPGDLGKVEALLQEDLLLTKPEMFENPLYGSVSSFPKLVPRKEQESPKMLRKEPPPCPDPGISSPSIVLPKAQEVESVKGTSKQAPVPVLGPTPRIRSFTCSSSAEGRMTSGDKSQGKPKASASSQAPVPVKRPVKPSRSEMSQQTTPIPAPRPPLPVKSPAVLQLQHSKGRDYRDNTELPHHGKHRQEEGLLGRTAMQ

[1] = test system: LPS-stimulated TNFα production in BMDM; experiment: Continuous flow culture of BMDM, TNFα kinetics; type: cell-based, mouse
Protocol: Production of bone marrow-derived macrophages. Bone marrow-derived macrophages (BMDMs) were generated by first collecting femurs and tibias from mice, and then flushing out the bone marrow through a 26-G needle. Extracted cells were plated, in Mac media supplemented with 5 ng/ml each of CSF-1 and GM-CSF (Stem Cell Technologies, Vancouver, BC), on a 10-cm tissue culture plate for 2 hours at 37° C. Non-adherent cells were collected and replated at 9×10^6 cells per 10-cm tissue culture plate. Cells were then cultured in the presence of CSF-1 and GM-CSF. Differentiated BMDMs were used after 7 to 8 days. All cells were maintained in a 37° C., 5% CO2, 95% humidity incubator.
Continuous Flow Cultures. The continuous flow apparatus facilitates constant stimulation and removal of cell supernatants to determine kinetic profiles of cytokine production over time. BMDMs were seeded at 3×10^6 cells per well in a 24-well tissue culture plate that had been coated with poly-L-lysine (Thermo Fisher Scientific, Nepean, ON) and rinsed with PBS. After overnight incubation, culture media was removed and Leibovitz's L-15 (L-15) media (Invitrogen, Burlington, ON) supplemented with 3% FCS, 10 μM β-mercaptoethanol and 150 μM monothioglycolate was added. Cells were allowed to equilibrate in L-15 media for 1 hour before being placed in the continuous flow apparatus. Stimulation solution was made in the same media equilibrated at 37° C., and was passed through a modified inlet fitted to the well by a syringe pump (New Era Syringe Pumps Inc., Farmingdale, N.Y.). A flow rate of 150 μl per minute was used. At the same time, cell supernatants were removed from the well at the same flow rate, and fractions were collected at 5-minute intervals over the course of 3 hours. These fractions were analyzed for secreted TNFα levels by ELISA.

[2] = 3 weeks treatment, RT-qPCR relative to GAPDH

Compound | reduction of histological and molecular markers of colon inflammation, compared with dexamethasone (colitis in IL10−/− mice) | pathology scores of colon sections (colitis in IL10−/− mice; 3 weeks treatment, 2 mg/kg compound I-1 or 0.4 mg/kg dexamethasone, vs vehicle) | CCL2 mRNA in colon (colitis in IL10−/− mice; [2]) | IL17 mRNA in colon (colitis in IL10−/− mice; [2]) | SHIP1 functional activity (SHIP1) | TNFα levels ([1]; LPS-stimulated SHIP1+/+ and STAT3+/+ BMDM) | inhibition of 3-hour TNFα peak ([1]; LPS-stimulated STAT3−/− and SHIP1−/− (KO) BMDM) | inhibition of 1-hour TNFα peak ([1]; LPS-stimulated STAT3−/− and SHIP1−/− BMDM)
Cc1cc(O)cc2c1C1(C)CCC3C(C)(C)CCCC3(C)C1C2 (centres unmarked) [Compound I-1] | as effective as dexamethasone | significantly lower pathology scores | significantly reduced | significantly reduced | increases SHIP1 functional activity | – | – | –
IL10: anti-inflammatory cytokine interleukin-10 | – | – | – | – | – | reduces | partly impaired | completely impaired
